Measurements: US20210267973A1, “COMBINATION OF A TYPE II PROTEIN ARGININE […] INHIBITOR AND AN ICOS BINDING PROTEIN TO TREAT CANCER” (GLAXOSMITHKLINE INTELLECTUAL PROPERTY DEVELOPMENT LIMITED, priority 2018, published 2021)

What was measured:
[1] = system: cellular splicing in lymphoma cell lines; test: RNA-sequencing splicing analysis in lymphoma cell lines; assay type: cell-based
Protocol: A. Mechanisms of regulation of cellular splicing (adapted from Bezzi M. et al.). B. Analysis of intron expression in lymphoma lines treated with 0.1 or 0.5 μM Compound B.
A. Quantification of isoform switches in 4 lymphoma cell lines treated with Compound B (0.1 and 0.5 μM) for 2 and 4 days. B. Overlap of isoform switches in 4 lymphoma lines. C. List of genes that undergo alternative splicing in all 4 lymphoma lines (overlap of 4 cell lines).
PRMT5 methylates histones and proteins involved in RNA processing and therefore PRMT5 inhibition is expected to have a profound effect on cellular mRNA homeostasis. To further decipher cellular mechanisms that are regulated by PRMT5 and contribute to the cellular response to PRMT5 inhibitors, global gene expression changes were evaluated in lymphoma models sensitive to PRMT5 inhibition. To elucidate gene expression changes that occur in lymphoma cell lines upon PRMT5 inhibitor treatment, 4 sensitive lymphoma lines (2 MCL lines-Z138 and Granta-519 and 2 DLBCL lines-DOHH2 and RL) were profiled by RNA-sequencing.
Since PRMT5 methylates spliceosome subunits and PRMT5 inhibition attenuates arginine methylation of a number of proteins involved in splicing, the effect of PRMT5 inhibin on cellular splicing was studied. The changes in RNA splicing were assessed in the lymphoma RNA-seq dataset described above. […]

[2] = system: SDMA, MDM4 splicing, p53 in GBM and lymphoma cell lines; test: SDMA, MDM4 splicing and p53 in GBM and lymphoma cell lines; assay type: cell-based; settings: 1 μM
Protocol: Next, effects on cellular methylation and the p53 pathway were evaluated in GBM cells treated with a PRMT5 inhibitor by measuring SDMA, p53 and p21 protein levels and MDM4 splicing (FIG. 27). […] Alternative MDM4 splicing was detected in all cell lines but SF539 which are p53 mutant and have low basal expression of the long MDM4 isoform (FIG. 27, panel A). p53 levels increased in all cell lines, while the induction of p21 protein was observed only in cell lines that have wild-type p53 (Z138 (MCL), U87-MG and A172 (GBM)). […] The role of p53 in the response of GBM cell lines to PRMT5 inhibition will be further tested in future studies. Additionally, the effects of PRMT5 inhibition on cell cycle and neural differentiation in GBM models are being explored.

[3] = system: SKBR3, MDA-MB-468, MCF-7, ZR-75-1 and Z-138 cells; test: longer-term growth/death assay in breast and MCL cell lines; assay type: cell-based; settings: SKBR3, MDA-MB-468 and MCF-7 cells, 7-10 days
[4] = system: 19 enzymes on the methyltransferase selectivity panel (Type I and Type II PRMTs and lysine methyltransferases); test: methyltransferase selectivity panel; assay type: biochemical; settings: PRMT5 tool compounds
Excerpt: FIG. 6: Phylogenetic tree highlighting the methyltransferases tested in the selectivity panel. […] PRMT9 is shown for relationship purposes only within the family tree and was not evaluated in the panel. Figure adapted from Richon V M. et al.
PRMT9/FBXO11, which is the other Type II PRMT and the only PRMT to lack the THW loop, was not included due to the lack of a functional enzyme assay.

[5] = system: MDM4 splicing, SDMA, p53 and p21 in MCL lines; test: MDM4 splicing (RT-PCR) and SDMA/p53/p21 Western in MCL lines; assay type: cell-based; settings: Z138 cells
Protocol: To understand whether p53 activation is associated with MDM4 isoform switching, MDM4 alternative splicing was analyzed. […] The role of the p53 pathway in the biology of the response of p53 wild-type MCL cells to PRMT5 inhibition is being evaluated.

[6] = system: MDA-MB-468 xenograft; test: MDA-MB-468 triple negative breast cancer xenograft model; assay type: in vivo; settings: 100 mg/kg BID
Protocol: Next, the efficacy of PRMT5 inhibition was evaluated in in vivo models of breast cancer.

[7] = system: Z-138 MCL xenograft; test: 21-day efficacy study in Z-138 MCL xenograft model; assay type: in vivo; settings: all groups in all efficacy studies presented
Protocol: B. Quantified SDMA western data from tumors harvested at the end of the efficacy study (3 hours post last dose).

[8] = system: panel of cancer cell lines; assay type: cell-based; settings: most sensitive lymphoma lines (MCL and DLBCL)
Excerpt: (§1) DLBCL-diffuse large B-cell lymphoma, GBM-glioblastoma, MCL-mantle cell lymphoma, […]
as §1
The cell lines were selected to represent tumor types where PRMT5 activity has been reported to regulate key pathways and/or cell growth and survival (such as lymphoma and MCL, glioma, breast and lung cancer lines).

[9] = system: MCL cell lines; test: 6-day growth/death assay in a panel of MCL lines; assay type: cell-based; settings: Mino, Jeko-1
Excerpt: FIG. 18: Activity of PRMT5 inhibitor and ibrutinib as single agents and in combination in MCL cell lines. […] C.
• The strongest mechanistic link currently described between PRMT5 and cancer is in MCL. PRMT5 is frequently overexpressed in MCL and is highly expressed in the nuclear compartment where it increases levels of histone methylation and silences a subset of tumor suppressor genes. Importantly, cyclin D1, the oncogene that is translocated in the vast majority of MCL patients, associates with PRMT5 and through a cdk4-dependent mechanism increases PRMT5 activity. PRMT5 mediates the suppression of key genes that negatively regulate DNA replication allowing for cyclin D1-dependent neoplastic growth. PRMT5 knockdown inhibits cyclin D1-dependent cell transformation causing death of tumor cells.

[10] = system: xenograft models of mantle cell lymphoma; test: xenograft models of mantle cell lymphoma (summary statement); assay type: in vivo
Excerpt: […] • The strongest mechanistic link currently described between PRMT5 and cancer is in MCL. PRMT5 is frequently overexpressed in MCL and is highly expressed in the nuclear compartment where it increases levels of histone methylation and silences a subset of tumor suppressor genes. […] The vast majority of SDMA containing proteins were factors that are involved in cellular splicing and RNA processing (SmB, Lsm4, hnRNPH1 and others), transcription (FUBP1) and translation highlighting the role of PRMT5 as an important regulator of cellular RNA homeostasis.

Q: With `O=C(NC[C@H](O)CN1CCc2ccccc2C1)c1ccnc(NC2CCC2)c1` [Compound B] as the compound, how does the isoform switching ([1]; 0.1 and 0.5 μM, 2 and 4 days, 4 lymphoma cell lines) read?
A: induces isoform switching for a subset of genes

Q: What about the intron splicing ([1]; 0.1 or 0.5 μM, lymphoma cell lines) of the same compound?
A: attenuates the splicing of a subset of introns

Q: And the MDM4 splicing [2]?
A: induces alternative splicing of MDM4

Q: And the SDMA levels [2]?
A: decreases SDMA levels

Q: And the p53 activation [2]?
A: activates p53

Q: And the “nature of response upon prolonged exposure” value [3]?
A: cytotoxic response

Q: And the “selectivity for PRMT5/MEP50 over the other methyltransferases” value (“selectivity for PRMT5/MEP50” below) [4]?
A: Selectivity for PRMT5/MEP50 over the other methyltransferases was also observed

Q: `CC(=O)N1CCC(Nc2cc(C(=O)NC[C@H](O)CN3CCc4ccccc4C3)ncn2)CC1` [Compound C] was tested. Which “p53 and p21 expression” value ([5]; 200 nM) did it give?
A: increased

Q: What about the “Maximal tumor growth inhibition (TGI)” value [6] of the same compound?
A: 83%

Q: And the body weight [7]?
A: no body weight loss

Q: And the gIC50 [8]?
A: single digit

Q: What about the “sensitivity in 6-day growth/death assay” value [9] of the same compound?
A: only moderately sensitive

Q: And the “nature of response upon prolonged exposure” value [3]?
A: cytotoxic response

Q: What about the “tumor growth inhibition (TGI)” value [10] of the same compound?
A: ~100%

Q: Which “selectivity for PRMT5/MEP50” value [4] does the source give for `O=C(NC[C@H](O)CN1CCc2ccccc2C1)c1cc(NC2COC2)ncn1` [Compound E] here?
A: Selectivity for PRMT5/MEP50 over the other methyltransferases was also observed

Q: How did the “selectivity for PRMT5/MEP50” value [4] turn out when `CC(=O)N1CCC(Nc2cc(C(=O)NC[C@H](O)CN3CCc4ccccc4C3)ccn2)CC1` [Compound F] was run?
A: Selectivity for PRMT5/MEP50 over the other methyltransferases was also observed

Q: With `COc1ccc(C2=N[C@@H](c3ccc(Cl)cc3)[C@@H](c3ccc(Cl)cc3)N2C(=O)N2CCNC(=O)C2)c(OC(C)C)c1` [Nutlin-3, reference compound] as the compound, how does the “p53 and p21 expression” value ([5]; 5 μM) read?
A: increased
